ChEMBL document CHEMBL1152333 (J Nat Prod, 2009)
Activity calls are given as the source filed them. No cut-off for these calls is given here.

Assays:
N2a [1] = assay: Inactivation of Kv channel in +30 mV-stimulated mouse N2A cells assessed as decay time constant of inactivated K+ current at 30 uM applied extracellularly (Rvb=1970 +/- 101 ms); assay type: cell-based
[2] = Inhibition of Kv channel in depolarized mouse N2A cells assessed as inhibition of +30 mV-triggered steady state potassium current flow
N2a [3] = assay: Inactivation of open state of Kv channel in depolarized mouse N2A cells assessed as change in +30 mV-stimulated peak current at 30 uM treated 4 mins before voltage stimulation relative to control; assay type: cell-based
N2a [4] = assay: Inactivation of open state of Kv channels in depolarized mouse N2A cells assessed as reduction of +30 mV-stimulated peak current magnitude at 30 uM treated 4 mins before voltage stimulation followed by restimulation with +30 mV pulse every 20 seconds measured after 6 mins relative to control; assay type: cell-based; design: scale not given: the % may be the effect or the level left
Mus musculus [5] = species: Mus musculus; assay: Inhibition of Kv potassium channel in mouse N2A assessed as blockade of channel pore at 30 uM in presence of 70 mM intracellular potassium ion; assay type: cell-based
Mus musculus [6] = species: Mus musculus; assay: Inhibition of Kv potassium channel in mouse N2A assessed as blockade of channel pore at 10 uM in presence of 140 mM intracellular potassium ion; assay type: cell-based
N2a [7] = assay: Inhibition of Kv potassium channel-induced current in mouse N2A cells assessed as left shift of activation curve; assay type: cell-based
N2a [8] = assay: Steady state inactivation of Kv potassium channel in -70 mV-activated mouse N2A cells followed by further 10 mV pulse stimulation assessed as reduction in half maximal activation potential at 30 uM (RVb= 10.8 +/- 2.4 mV); assay type: cell-based
N2a [9] = assay: Steady state inactivation of Kv potassium channel in -70 mV-activated mouse N2A cells followed by further 10 mV pulse stimulation assessed as change in slope factor potential at 30 uM (RVb= 16.1 +/- 1.1 no_unit); assay type: cell-based
[10] = target: Potassium voltage-gated channel subfamily A member 2 (Homo sapiens) (UniProt P16389); assay: Inhibition of Kv1.2 channel expressed in -70 mV-activated HEK293 cells followed by further 10 mV pulse stimulation assessed as slope factor (RVb= 16.3 +/- 1.8 no_unit); assay type: cell-based
N2a [11] = assay: Steady state inactivation of Kv potassium channel in -70 mV-activated mouse N2A cells followed by further 10 mV pulse stimulation assessed as reduction in half maximal activation potential at 30 uM applied intracellularly (RVb= 10.8 +/- 2.4 mV); assay type: cell-based
N2a [12] = assay: Steady state inactivation of Kv potassium channel in -70 mV-activated mouse N2A cells followed by further 10 mV pulse stimulation assessed as activation slope factor at 30 uM applied intracellularly; assay type: cell-based
N2a [13] = assay: Steady state inactivation of Kv potassium channel in 10 second long prepulse-activated mouse N2A cells followed by further +70 mV pulse stimulation assessed as reduction in half maximal activation potential at 30 uM (RVb=20.9 +/- 2.1 mV); assay type: cell-based
N2a [14] = assay: Steady state inactivation of Kv potassium channel in 10 sec long prepulse-activated mouse N2A cells followed by further +70 mV pulse stimulation assessed as change in slope factor potential at 30 uM (Rvb=6.4 +/- 1.1 no_unit); assay type: cell-based
N2a [15] = assay: Inactivation of Kv channel in +30 mV-stimulated mouse N2A cells assessed as decay time constant of inactivated K+ current at 30 uM applied extracellularly measured after compound washout (Rvb=1970 +/- 101 ms); assay type: cell-based
N2a [16] = assay: Inactivation of Kv channel in +30 mV-stimulated mouse N2A cells assessed as […] at 30 uM applied extracellularly measured after compound washout (Rvb=1970 +/- 101 ms); assay type: cell-based
N2a [17] = assay: Inactivation of Kv channel in +30 mV-stimulated mouse N2A cells assessed as decay time constant of inactivated K+ current at 30 uM via bath application measured after 3 mins (Rvb=1567 +/- 104 ms); assay type: cell-based
N2a [18] = assay: Inactivation of open state of Kv channel in +30 mV-stimulated mouse N2A cells assessed as peak K+ current recovery at 30 uM treated 4 mins before voltage stimulation followed by restimulation with +30 mV pulse every 20 seconds measured after compound washout; assay type: cell-based
N2a [19] = assay: Inhibition of Kv potassium channel in +10 to +70 mV-stimulated mouse N2A cells at 30 uM; assay type: cell-based
N2a [20] = assay: Inhibition of Kv potassium channel in +10 to +70 mV-stimulated mouse N2A cells at 10 uM; assay type: cell-based
N2a [21] = assay: Inactivation of Kv channel in +30 mV-activated mouse N2A cells followed by further +30 mV pulse stimulation assessed as peak K+ current recovery at 30 uM; assay type: cell-based

Chain of Potassium voltage-gated channel subfamily A member 2 (Homo sapiens) (P16389 whole entry): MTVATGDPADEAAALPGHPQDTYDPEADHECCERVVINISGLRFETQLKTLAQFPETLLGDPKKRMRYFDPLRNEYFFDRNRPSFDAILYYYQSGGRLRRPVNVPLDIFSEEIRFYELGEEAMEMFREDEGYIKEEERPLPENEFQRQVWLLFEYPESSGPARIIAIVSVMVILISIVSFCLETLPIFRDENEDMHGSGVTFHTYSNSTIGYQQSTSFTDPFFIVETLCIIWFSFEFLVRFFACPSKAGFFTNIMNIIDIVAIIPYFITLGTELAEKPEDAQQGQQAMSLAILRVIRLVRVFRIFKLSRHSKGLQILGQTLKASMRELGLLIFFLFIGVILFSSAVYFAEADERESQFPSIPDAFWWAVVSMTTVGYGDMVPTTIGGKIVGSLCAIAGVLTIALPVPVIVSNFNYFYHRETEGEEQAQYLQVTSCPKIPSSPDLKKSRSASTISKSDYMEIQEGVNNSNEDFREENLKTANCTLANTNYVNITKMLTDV

CC[C@H]1CN2CC[C@]3(C(=O)Nc4ccccc43)[C@@H]2C[C@@H]1/C(=C\OC)C(=O)OC [RHYNCHOPHYLLINE]
Activity (N2a [1]): 60.8 ms | IC50 [2]: 7.9 µM | Activity (N2a [3]): 115% | Activity (N2a [4]): 72.5% | Activity (Mus musculus [5]): inactive | Activity (Mus musculus [6]): inactive | Activity (N2a [7]): Active | Activity (N2a [8]): -6.5 mV | Activity (N2a [9]): 23.2 | Activity [10]: 19.4 | Activity (N2a [11]): 7.7 mV | Activity (N2a [12]): 11.8 | Activity (N2a [13]): -34.6 mV | Activity (N2a [14]): 3.7 | Activity (N2a [15]): 1900 ms | Activity (N2a [16]): 93.3 ms | Activity (N2a [17]): 35 ms | Activity (N2a [18]): 98% | Activity (N2a [19]): Active | Activity (N2a [20]): Active | Activity (N2a [21]): inactive
